Measurements: article PMC12974487, “Inhibition of FicD-mediated AMPylation and deAMPylation by isoprenoid diphosphates” (Proceedings of the National Academy of Sciences of the …, 2026)
Entries after “also recorded” stand apart in the source; their conditions may differ.

What was measured:
AvrB = AvrB (Pseudomonas savastanoi pv. glycinea, UniProt P13835); assay: Rhamnosylation of GST-Rin4 by AvrB; type: biochemical, Pseudomonas syringae
Description: Finally, we explored the inhibitory effects of GPP/FPP on other Fido proteins to see if these metabolites could serve as generic inhibitors of Fido domains. To test this specificity, we performed in vitro activity assays with GPP/FPP and two constitutively active Fido proteins from bacteria: VopS from Vibrio parahaemolyticus ([25]) and AvrB from Pseudomonas syringae ([30]).
(250mM Tris pH 6.8, 10% Sodium dodecyl sulfate, 50% glycerol, 50mM DTT, 0.05% Bromophenol blue) and heated at 98°C for 5 minutes.
Rhamnosylation assays were performed as previously described (2). Briefly, AvrB and GST-Rin4 were combined in the presence of GPP or FPP, where applicable. Reactions were started by the addition of UDP-Rhamnose at a final concentration of […] and reactions were incubated for 1 hour at room temperature. Reactions were stopped by the addition of 5X SDS sample buffer […]
Equal volumes of samples suspended in 5X SDS sample buffer were resolved on hand-cast 10% 1.5mm Tris-Glycine gels with the BioRad Mini-PROTEAN Tetra Cell system. […]
Intact mass analysis of proteins was performed by the UT Southwestern Proteomics Core. Intact protein samples were analyzed by LC/MS, using a Sciex X500B QTOF mass spectrometer operating in positive ion mode, coupled to an Agilent 1290 Infinity II HPLC. […]

[1] = system: Glutathione S-transferase (GST); assay: DSF specificity control with GST; type: binding; conditions: same concentrations as measured for FicD
Description: To ensure specificity of binding to the FicD enzyme, we performed DSF with Glutathione S-transferase (GST) and BiP in the presence of the same increasing metabolite concentrations. […] Like FicD, BiP is an ATP/Mg^2+ dependent protein that could potentially leverage the same binding mode as GPP/FPP. […]
across samples. Extremely low or missing values were floored to metabolite-specific limits of detection. For each dialysis replicate, log₂-transformed abundances were computed, and log₂(fold change) was calculated as the difference between protein and metabolite chambers. Injection replicates were averaged prior to fold-change calculation. Dialysis replicates with missing chamber measurements were excluded. Technical replicates were retained for outlier detection. Metabolites dominated by noise were removed based on comparison of a null model (intercept only) versus a protein-specific model and RMSE > 0.5 across dialysis replicates. Remaining metabolites were classified as “protein signal” and retained for analysis. For each metabolite–protein pair, up to one extreme outlier was removed using a z-score cutoff of 4. Dialysis replicates were then averaged to yield a consensus fold-change per protein–metabolite pair. […]

Sequence of AvrB (P13835 whole entry, the tested form may be a part): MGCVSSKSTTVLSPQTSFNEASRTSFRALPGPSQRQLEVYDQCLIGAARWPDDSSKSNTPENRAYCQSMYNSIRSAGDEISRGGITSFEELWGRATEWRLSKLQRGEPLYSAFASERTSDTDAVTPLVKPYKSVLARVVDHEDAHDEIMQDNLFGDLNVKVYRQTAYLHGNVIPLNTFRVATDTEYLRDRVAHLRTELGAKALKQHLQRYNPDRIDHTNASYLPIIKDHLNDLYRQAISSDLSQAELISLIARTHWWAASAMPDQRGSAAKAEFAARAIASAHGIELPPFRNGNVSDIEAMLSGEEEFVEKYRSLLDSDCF

SMILES | effect on rhamnosylation activity of AvrB (AvrB) | change in GST melt curves or Tm [1]
CC(C)=CCC/C(C)=C/CC/C(C)=C/COP(=O)(O)OP(=O)(O)O [FPP, farnesyl-pyrophosphate] | Neither GPP nor FPP affected; also recorded: not inhibited | Neither GPP nor FPP elicited a change
CC(C)=CCC/C(C)=C/COP(=O)(O)OP(=O)(O)O [GPP, geranyl-pyrophosphate] | Neither GPP nor FPP affected | Neither GPP nor FPP elicited a change
